Measured values taken from patent US12329788B2, “Synbiotic compositions” (Evonik Operations GmbH, priority 2018, dated 2025).
Where a SMILES comes first, the peptide text is derived from it.

Test system: colonic human microbiota
Assay: i-screen intestinal screening model, microbiota composition by 16S rRNA V4 sequencing (whole community, Bacillus persistence)
Format: cell-based
Conditions: for other genera relative abundance: 24 h SIEM, amino acids 3.5 mM; for other genera relative abundance / effect on the microbial community: dipeptides 7 mM; for synergy on microbial community composition (higher increase of Clostridium XIVa, higher decrease of Clostridium XI than single additions): 24 h; for effect on the microbial community: Example 8, amino acids 3.5 mM, 0% O2
Description: To determine the effect of the probiotic strains Bacillus subtilis DSM 32315, Bacillus subtilis DSM 32540, Bacillus licheniformis DSM 32314 and Bacillus amyloliquefaciens CECT 5940 on adult colonic microbiota, an intestinal screening model was used (i-screen, TNO, the Netherlands). Therefore the i-screen model was inoculated with standard human adult fecal microbiota material, which consisted of pooled fecal donations from 6 healthy adult volunteers (Caucasian, European lifestyle and nutrition). The fecal material was mixed and grown in a fed-batch fermenter for 40 hours to create a standardized microbiota as described previously. These standard adult gut microbiota sets were stored at -80° C. in 12% glycerol. The intestinal microbiota was cultured in vitro in modified standard ileal efflux medium (SIEM), the composition of which was described by and modified as follows: 0.047 g/l pectin, 0.047 g/l xylan, 0.047 g/l arabinogalactan, 0.047 g/l amylopectin, 0.392 g/l starch, 24.0 g/l casein, 24.0 Bacto pepton, 0.4 ox-bile and 0.2 g/l cysteine. All components were supplied by Trititium Microbiology (Veldhoven, The Netherlands). The pH of the medium was adjusted to 5.8. For the i-screen fermentations, the precultured standardized fecal inoculum was diluted 50 times in 1350 μl modified SIEM. All experiments have been carried out in triplicates. The strains Bacillus subtilis (DSM 32315), Bacillus subtilis DSM 32540, Bacillus licheniformis DSM 32314 and Bacillus amyloliquefaciens CECT 5940 were precultured separately in 50 ml LBKelly medium, for about 16 h. Incubation was done in shaking flasks at 37° C. under aerobic conditions. After incubation, bacterial density was determined by optical density measurement at 600 nm. A final stock solution of 1×10^10 cells/ml was prepared in 1 ml buffer solution (0.1 mM MES pH 6). […] DNA extraction for the sequencing of 16S rRNA coding genes was performed as described by […] et al. (2013) with some minor modifications. Approximately 100 μl of the culture materials were added to the wells of a 96 well plate containing per well 300 μl of lysis buffer (Mag Mini DNA Isolation Kit, LGC ltd, UK), 500 μl zirconium beads (0.1 mm; BioSpec products, Bartlesville, OK, USA) and 500 μl of phenol saturated with Tris-HCI (pH 8.0; Carl Roth GMBH, Germany). The 96 well plate was placed in a Mini-BeadBeater-96 (BioSpec products, Bartlesville, Okla, USA) for 2 min at 2100 oscillations/min. DNA was subsequently purified using the Agowa Mag Mini DNA Isolation Kit according to the manufacturer recommendations. Extracted DNA was eluted in a final volume of 60 μl buffer. The microbiota composition was analyzed by 16S rRNA gene amplicon sequencing of the V4 Hypervariable Region. This was Achieved Through a Series of Steps: The amount of bacterial DNA in the i-screen DNA samples was determined by quantitative polymerase chain reaction (qPCR) using primers specific for the bacterial 16S rRNA gene: Subsequently, PCR amplicons of the V4 hypervariable region of the 16S rRNA gene were generated for the individual samples by amplification of […] of DNA as described by (2013), using […]/[…] primers. Primers included Illumina adapters and a unique 8-nt sample index sequence key. A mock control was included for technical quality control. […] The Library was quantified using the Quant-iTTM PicoGreen® dsDNA Assay Kit (Thermo Fisher Scientific). Paired-end sequencing of amplicons was conducted on the Illumina MiSeq platform (Illumina, Eindhoven, The Netherlands). The sequence data was processed with Mothur v.1.36.1 [26] in line with the mothur MiSeq SOP [24]. Before merging the read pairs, low quality regions were trimmed using Btrim with a sliding window size of 5 nt and average quality score of 25. After merging, the sequences were filtered by length while no ambiguous bases were allowed. […] Chimeric sequences were identified per sample using […] [28] in de novo mode and removed. […]

[1] = microbiota + CECT 5940 (first group so headed, r13-r15)
[2] = microbiota + CECT 5940 (second group so headed, r16-r18)
[3] = in combination with B. amyloliquefaciens (CECT 5940)
[4] = in combination with B. licheniformis (DSM 32314)
[5] = in combination with B. subtilis (DSM 32315)

Structure (SMILES) | other genera relative abundance [1] [%] | other genera relative abundance [2] [%] | other genera relative abundance (microbiota + DSM 32315) [%] | other genera relative abundance (microbiota, no probiotic cells) [%] | synergy on microbial community composition (higher increase of Clostridium XIVa, higher decrease of Clostridium XI than single additions) [3] | synergy on microbial community composition (higher increase of Clostridium XIVa, higher decrease of Clostridium XI than single additions) [4] | synergy on microbial community composition (higher increase of Clostridium XIVa, higher decrease of Clostridium XI than single additions) [5] | effect on the microbial community
CC(=O)N[C@@H](C)C(=O)N[C@@H](CCC(N)=O)C(=O)O [Ac-Ala-Gln] (Ac-Ala-Gln-OH) | 78 | 76 | 67 | 72 |  |  |  | 
C[C@H](N)C(=O)N[C@@H](CCC(N)=O)C(=O)O [Ala-Gln, Alanine-Glutamine] (H-Ala-Gln-OH) | 90 | 94 | 96 | 98 | synergistic effect | synergistic effect | synergistic effect | 
NC(=O)CC[C@H](N)C(=O)O [Gln, glutamine, reference compound] | 79 | 70 | 74 | 72 | synergistic effect |  |  | no positive effect on the microbial community
N[C@@H](CCC(=O)O)C(=O)O [Glu, glutamic acid, reference compound] | 73 | 80 | 72 | 72 |  |  |  | no positive effect on the microbial community
NCC(=O)O.N[C@@H](CCC(=O)O)C(=O)O [Gly-Glu, Glycine-Glutamic acid] | 91 | 90 | 92 | 95 | synergistic effect | synergistic effect | synergistic effect | 
